Consider 16 compounds from patent US6342501B1, “Pyrrolo[2,3-d] pyrimidines as antiviral agents” (The Regents of the University of Michigan, priority 1994, dated 2002).

SMILES strings stand for the structures. Where two headings read alike, the source gives them in different places.

Assay [1] has as its system human foreskin fibroblasts (HFF cells). Description: Cytotoxicity in stationary HFF cells (microscopic inspection of plaque assay cells). The assay is classed as cell-based. As to conditions: read-out: HFF. The protocol: (§1) Two different assays were used to explore cytotoxicity of selected compounds: (i) Cytotoxicity produced in stationary HFF cells was determined by microscopic inspection of cells used in plaque assays which were not affected by the virus [Turk, S. R., et al, Antimicrob.
(§2) Dose-response relationships were constructed by linearly regressing the percent inhibition of parameters derived in the preceding sections against logarithm 10 drug concentrations. […] Samples containing positive controls (acyclovir for HSV-1 and ganciclovir for HCMV) were used in all assays.

In assay [2] the test system is human cytomegalovirus (HCMV). Description: microbe, parasite or virus in culture. Type of assay: cell-based, Towne strain. As to conditions: for IC50: Human betaherpesvirus 5, HFF, read-out: HCMV; for antiviral activity against HCMV (in words): comment on Table 1 data. On the procedure: (§3) The routine growth and passage of KB and BSC-1 cells was performed in monolayer cultures using minimal essential medium (MEM) with either Hanks salts [MEM(H)] or Earle salts [MEM(E)] supplemented with 10% calf serum. The sodium bicarbonate concentration was varied to meet the buffering capacity required. Cultures of diploid human foreskin fibroblast (HFF) or MRC-5 cells were grown in medium consisting of MEM(E) with 10% fetal bovine serum. Cells were passaged at 1:2 to 1:10 dilutions according to conventional procedures by using 0.05% trypsin plus 0.02% EDTA in a HEPES buffered salt solution (HBS) [Shipman, C., Jr., Proc. Soc. […] HFF and MRC-5 cells were passaged only at 1:2 dilutions. The Towne strain, plaque-purified isolate Po, of HCMV was kindly provided by Dr. Mark Stinski, University of Iowa. The KOS strain of HSV-1 was used in most experiments and was provided by Dr. Sandra K. Weller, University of Conn.
Stock HCMV was prepared by infecting HFF cells at a multiplicity of infection (m.o.i.) of <0.01 plaque-forming units (p.f.u.) per cell. Cell growth medium was changed every four days until cytopathology was evident in all cells (approximately 21 days). Supernatant fluids were retained as the virus stock.
Virus titers were determined using monolayer cultures of HFF cells for HCMV and monolayer cultures of BSC-1 cells for HSV-1 as described earlier [Prichard, M. N., et al., J. Virol. […] Briefly, HFF or BSC-1 cells were planted as described above in 96-well cluster dishes and incubated overnight at 37. degree. C. in a humidified 3% C02 -97% air atmosphere. The next day cultures were inoculated with HCMV or HSV-1 and serially diluted 1:3 across the remaining eleven columns of the 96-well plate. Cultures were incubated at 37. degree. C. for 2 hr to permit virus adsorption and then virus inoculum was replaced with 0.2 ml of fresh medium. Cultures were incubated for seven days for HCMV, two or three days for HSV-1, the medium was removed, and the cell sheets were stained with 0.1% crystal violet in 20% methanol.
HFF cells in 24-well cluster dishes were infected with approximately 100 p.f.u. of HCMV per cm^2 cell sheet using the procedures detailed above. Following virus adsorption, compounds dissolved in growth medium were added to duplicate wells in four to eight selected concentrations. After incubation at 37° C. for 7 to 10 days, cell sheets were fixed, stained with crystal violet and microscopic plaques enumerated as described above.
After virus adsorption, inoculum was replaced with 0.2 mL of fresh medium containing test compounds. The first row of 12 wells was left undisturbed and served as virus controls. Each well in the second row received an additional 0.1 mL of medium with test compound at three times the desired final concentration. The contents of the 12 wells were mixed by repeated pipetting and then serially diluted 1:3 along the remaining wells. In this manner, six compounds could be tested in duplicate on a single plate with concentrations from […]. Plates were incubated at 37° C. for seven days, subjected to one cycle of freezing and thawing; aliquots from each of the eight wells of a given column were transferred to the first column of a fresh 96-well monolayer culture of HFF cells. Contents were mixed and serially diluted 1:3 across the remaining eleven columns of the secondary plate. Each column of the original primary plate was diluted across a separate plate in this manner. Cultures were incubated, plaques were enumerated, and titers calculated as described above.
as §2

For assay [3], the system named is KB cells. Description: Cytotoxicity: KB cell growth (crystal violet staining). The assay is classed as cell-based. The following applies: Homo sapiens, read-out: KBgrv. The protocol:
as §1
Briefly, 96-well cluster dishes were planted with KB cells at 3000-5000 cells per well. After overnight incubation at 37° C., test compound was added in quadruplicate at six to eight concentrations. Plates were incubated at 37° C for 48 hours in a CO2 incubator, rinsed, fixed with 95% ethanol, and stained with 0.1% crystal violet. Acidified ethanol was added and plates read at 570 nm in a spectrophotometer designed to read 96-well ELISA assay plates.
as §2

The test system of assay [4] is herpes simplex virus type 1 (HSV-1). Description: HSV-1 ELISA in BSC-1 cells. The assay is classed as cell-based, KOS strain. As to conditions: read-out: HSV-1. The protocol: as §3
High titer HSV-1 stocks were prepared by infecting BSC cells at an m.o.i. of <0.1 as detailed previously [Turk, S. R., et al., Antimicrob.
Ninety-six-well cluster dishes were planted with 10,000 BSC-1 cells per well in 200 μL per well of MEM(E) plus 10% calf serum. After overnight incubation at 37° C., selected drug concentrations in quadruplicate and HSV-1 at a concentration of 100 p.f.u./well were added. Following a 3-day incubation at 37° C., medium was removed, plates were blocked, rinsed, and horse radish peroxidase conjugated rabbit anti-HSV-1 antibody was added. Following removal of the antibody containing solution, plates were rinsed, and then developed by adding 150 μL per well of a solution of tetramethylbenzidine as substrate. The reaction was stopped with H2SO4 and absorbance was read at 450 and 570 nm. Drug effects were calculated as a percentage of the reduction in absorbance in the presence of each drug concentration compared to absorbance obtained with virus in the absence of drug.
as §2
(In general: An ELISA detects its analyte on a solid surface through an enzyme-linked reagent.)

Setting [5] is: Table 1, cytotoxicity, stationary HFF cells, visual.
Where [6] appears, read: Table 1, cytotoxicity, KB cell growth, 48 hours.
Setting [7] is: Human alphaherpesvirus 1, 72 h, Table 1, fifty-percent inhibitory concentration, ELISA, BSC-1 cells, 3-day incubation.

Consider `N#Cc1c(Br)n(CC=Cc2ccccc2)c2ncnc(N)c12` [Compound 1361, 4-amino-6-bromo-7-(3-phenyl)prop-2-enyl-pyrrolo[2,3-d]pyrimidine-5-carbonitrile], for which the IC50 in assay [1] (setting [5]), in assay [2], in assay [3] (setting [6]) and in assay [4] (setting [7]) was more than 100 µM throughout.
Take `N#Cc1cn(CCCc2ccccc2)c2ncnc(N)c12` [Compound 1362, 4-amino-7-(3-phenyl)propyl-pyrrolo[2,3-d]pyrimidine-5-carbonitrile]: the IC50 in assay [1] (setting [5]) is more than 10 µM; in assay [2], more than 10 µM; in assay [3] (setting [6]), more than 100 µM; in assay [4] (setting [7]), more than 100 µM.
`CC(c1ccccc1)n1c(Br)c(C#N)c2c(N)ncnc21` (centres unmarked) [Compound 1363, 4-amino-6-bromo-7-((2-phenyl)eth-2-yl)-pyrrolo[2,3-d]pyrimidine-5-carbonitrile]: the IC50 is more than 100 µM in assay [1] (setting [5]), 2.7 µM in assay [2], 50 µM in assay [3] (setting [6]) and 90 µM in assay [4] (setting [7]). Besides, in assay [2], the “antiviral activity against HCMV (in words)” value (shortened to “antiviral activity”) is listed as “good to excellent antiviral activity”.
For `N#Cc1c(N)n(Cc2ccc(F)cc2)c2ncnc(N)c12` [Compound 1365, 4,6-diamino-7-(4-flourobenzyl)-pyrrolo[2,3-d]pyrimidine-5-carbonitrile], in that order: more than 100 µM, 0.3 µM, 60 µM, 33 µM and “good to excellent antiviral activity”.
Turning to `N#Cc1cn(CCc2ccccc2)c2ncnc(N)c12` [Compound 1368, 4-amino-7-(2-phenyl)ethyl-pyrrolo[2,3-d]pyrimidine-5-carbonitrile], the IC50 was 32 µM in assay [1] (setting [5]), 0.7 µM in assay [2], more than 100 µM in assay [3] (setting [6]) and 10 µM in assay [4] (setting [7]). Moreover, in assay [2], the “antiviral activity” value is reported as “excellent activity”.
Consider `N#Cc1c(N)n(CCc2ccccc2)c2ncnc(N)c12` [Compound 1369, 4,6-diamino-7-(2-phenyl)ethyl-pyrrolo[2,3-d]pyrimidine-5-carbonitrile], for which the IC50 was 100 µM in assay [1] (setting [5]), less than 0.1 µM in assay [2], 82 µM in assay [3] (setting [6]) and 0.3 µM in assay [4] (setting [7]). In addition, the “antiviral activity” value in assay [2] is given as “excellent activity”.
For the compound `N#Cc1cn(CC=Cc2ccccc2)c2ncnc(N)c12` [Compound 1372, 4-amino-7-(3-phenyl)prop-2-enyl-pyrrolo[2,3-d]pyrimidine-5-carbonitrile], the IC50 in assay [1] (setting [5]) is more than 10 µM; in assay [2], more than 10 µM; in assay [3] (setting [6]) it was more than 100 µM; in assay [4] (setting [7]) it was more than 100 µM.
In the case of `N#Cc1c(Br)n(Cc2ccc(Br)cc2)c2ncnc(N)c12` [Compound 1373, 4-amino-6-bromo-7-(4-bromobenzyl)-pyrrolo[2,3-d]pyrimidine-5-carbonitrile], the IC50 was 10.5 µM in assay [1] (setting [5]), 10.5 µM in assay [2], more than 100 µM in assay [3] (setting [6]) and more than 100 µM in assay [4] (setting [7]).
For the compound `N#Cc1c(Br)n(Cc2cccc([N+](=O)[O-])c2)c2ncnc(N)c12` [Compound 1374, 4-amino-6-bromo-7-(3-nitrobenzyl)-pyrrolo[2,3-d]pyrimidine-5-carbonitrile], the IC50 in assay [1] (setting [5]) is more than 10 µM; in assay [2] it was more than 10 µM; in assay [3] (setting [6]), more than 100 µM; in assay [4] (setting [7]) it was more than 100 µM.
Take `NC(=O)c1cn(CCCc2ccccc2)c2ncnc(N)c12` [Compound 1376, 4-amino-7-(3-phenyl)propyl-pyrrolo[2,3-d]pyrimidine-5-carboxamide]: the IC50 in assay [1] (setting [5]) worked out at 100 µM; in assay [2], 28 µM; in assay [3] (setting [6]), 70 µM; in assay [4] (setting [7]) it was 35 µM.
For `N#Cc1cn(Cc2cccc([N+](=O)[O-])c2)c2ncnc(N)c12` [Compound 1382, 4-amino-7-(3-nitrobenzyl)-pyrrolo[2,3-d]pyrimidine-5-carbonitrile], in that order: more than 10 µM, more than 10 µM, more than 100 µM and more than 100 µM.
For `N#Cc1c(Br)n(Cc2ccc(Cl)cc2)c2ncnc(N)c12` [Compound 1388, 4-amino-6-bromo-7-(4-chlorobenzyl)-pyrrolo[2,3-d]pyrimidine-5-carbonitrile], the IC50 is 116 µM in assay [1] (setting [5]), 116 µM in assay [2], more than 100 µM in assay [3] (setting [6]) and more than 100 µM in assay [4] (setting [7]).
As for `N#Cc1c(N)n(Cc2ccc(Br)cc2)c2ncnc(N)c12` [Compound 1389, 4,6-diamino-7-(4-bromobenzyl)-pyrrolo[2,3-d]pyrimidine-5-carbonitrile], the IC50 is more than 10 µM in assay [1] (setting [5]), 0.2 µM in assay [2], 15 µM in assay [3] (setting [6]) and more than 100 µM in assay [4] (setting [7]). Also, the “antiviral activity” value in assay [2] is “good to excellent antiviral activity”.
Take `NC(=O)c1cn(CCc2ccccc2)c2ncnc(N)c12` [Compound 1396, 4-amino-7-(2-phenyl)ethyl-pyrrolo[2,3-d]pyrimidine-5-carboxamide]: the IC50 in assay [1] (setting [5]) is more than 100 µM; in assay [2] it was 17 µM; in assay [3] (setting [6]), 40 µM; in assay [4] (setting [7]), 45 µM.
On to `NC(=O)c1c(Br)n(CCc2ccccc2)c2ncnc(N)c12` [Compound 1409, 4-amino-6-bromo-7-(2-phenyl)ethyl-pyrrolo[2,3-d]pyrimidine-5-carboxamide], for which the IC50 in assay [1] (setting [5]) is more than 100 µM; in assay [2] it was 100 µM; in assay [3] (setting [6]), more than 100 µM; in assay [4] (setting [7]) it was more than 100 µM. The “antiviral activity” value in assay [2] is recorded as “lost”.
With `NC(=O)c1cn(Cc2ccc([N+](=O)[O-])cc2)c2ncnc(N)c12` [Compound 1412, 4-amino-7-(4-nitrobenzyl)-pyrrolo[2,3-d]pyrimidine-5-carboxamide], the IC50 in assay [1] (HFF) is 100 µM; in assay [2], 5 µM; in assay [3] (KB, 48 h) it was more than 100 µM; in assay [4] (Human alphaherpesvirus 1, BSC-1, 72 h), 45 µM. Besides, the “antiviral activity” value in assay [2] is listed as “good to excellent antiviral activity”.
